Measured values from US10758534B2 (Vertex Pharmaceuticals Incorporated, priority 2014, dated 2020).
Like-named read-outs stand apart in the source and are kept apart here.

Target: T1, F508del (Homo sapiens, UniProt P13569, DEL508-508)
T1 construct: expressed in transfected cells
Experiment: Protocol 2: FRET membrane potential optical assay (VIPR), identification of correction compounds
Format: cell-based
How it was run: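 Mouse NIH3T3 cells, stable F508del; cpd 16 hrs, 37° C., serum-free; pos ctrl 27° C. 16 hrs. Rinse in Krebs Ringers, dye load, then add 10 μM forskolin + 20 μM genistein with Cl^−-free (gluconate) medium; depolarization by FRET voltage dyes.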

[1] = Table 3, compounds of Table 1 as modulators of CFTR activity, protocol not stated
[2] = F508del CFTR modulator activity, compounds of Table 1, read-out: EC30

T1 sequence (P13569 with tags, fused parts or gaps DEL508-508): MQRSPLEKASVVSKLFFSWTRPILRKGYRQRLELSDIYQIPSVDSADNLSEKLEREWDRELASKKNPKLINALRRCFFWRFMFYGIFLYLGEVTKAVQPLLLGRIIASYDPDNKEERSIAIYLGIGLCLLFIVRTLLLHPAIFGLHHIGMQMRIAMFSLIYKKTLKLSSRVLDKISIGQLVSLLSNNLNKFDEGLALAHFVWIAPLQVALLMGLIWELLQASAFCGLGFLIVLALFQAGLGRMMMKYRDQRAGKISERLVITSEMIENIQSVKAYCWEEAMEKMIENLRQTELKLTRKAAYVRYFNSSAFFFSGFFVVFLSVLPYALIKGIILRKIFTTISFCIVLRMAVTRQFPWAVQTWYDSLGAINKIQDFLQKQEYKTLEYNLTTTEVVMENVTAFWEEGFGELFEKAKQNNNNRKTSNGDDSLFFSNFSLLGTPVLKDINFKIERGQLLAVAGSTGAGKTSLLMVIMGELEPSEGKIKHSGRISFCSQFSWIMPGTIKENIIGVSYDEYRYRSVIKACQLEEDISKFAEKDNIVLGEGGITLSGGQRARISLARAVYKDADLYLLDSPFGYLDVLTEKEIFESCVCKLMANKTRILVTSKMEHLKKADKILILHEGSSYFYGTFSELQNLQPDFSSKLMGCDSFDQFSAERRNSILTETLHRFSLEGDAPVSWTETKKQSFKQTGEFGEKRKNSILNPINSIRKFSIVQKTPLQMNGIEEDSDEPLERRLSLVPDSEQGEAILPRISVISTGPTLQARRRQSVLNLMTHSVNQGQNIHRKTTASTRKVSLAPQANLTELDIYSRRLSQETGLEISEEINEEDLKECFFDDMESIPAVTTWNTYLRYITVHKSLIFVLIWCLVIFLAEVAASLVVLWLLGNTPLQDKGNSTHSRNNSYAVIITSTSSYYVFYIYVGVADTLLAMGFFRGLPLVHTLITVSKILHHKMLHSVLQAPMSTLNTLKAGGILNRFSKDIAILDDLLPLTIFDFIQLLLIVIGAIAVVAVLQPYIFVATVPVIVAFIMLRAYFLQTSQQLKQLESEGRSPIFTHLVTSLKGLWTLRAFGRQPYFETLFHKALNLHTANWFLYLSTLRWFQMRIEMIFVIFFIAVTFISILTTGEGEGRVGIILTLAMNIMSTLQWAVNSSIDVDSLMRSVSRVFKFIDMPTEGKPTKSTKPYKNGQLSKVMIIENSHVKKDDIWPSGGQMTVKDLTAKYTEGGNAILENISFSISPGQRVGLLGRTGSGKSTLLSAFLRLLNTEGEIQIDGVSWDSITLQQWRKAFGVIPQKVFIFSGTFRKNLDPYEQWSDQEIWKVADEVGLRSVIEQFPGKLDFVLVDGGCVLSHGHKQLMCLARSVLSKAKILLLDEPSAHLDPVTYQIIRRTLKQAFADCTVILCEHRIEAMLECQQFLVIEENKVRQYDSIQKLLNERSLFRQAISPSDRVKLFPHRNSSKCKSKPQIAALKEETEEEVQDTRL

Row | SMILES | EC30 [1] | EC30 [2]
1 | Cc1cc(C)c(Oc2nc(-c3cccc(CO)c3)ccc2C(=O)NS(=O)(=O)c2cccc(N)n2)c(C)c1 [Compound 786, N-[(6-amino-2-pyridyl)sulfonyl]-6-[3-(hydroxymethyl)phenyl]-2-(2,4,6-trimethylphenoxy)pyridine-3-carboxamide] | + (“+” means greater than 10 uM) | 
2 | Cc1cc(C)c(Oc2nc(-c3ccc(N(C)C)nc3)ccc2C(=O)NS(=O)(=O)c2cccc(N)n2)c(C)c1 [Compound 787, N-[(6-amino-2-pyridyl)sulfonyl]-6-[6-(dimethylamino)-3-pyridyl]-2-(2,4,6-trimethylphenoxy)pyridine-3-carboxamide] | +++ (“+++” means <3 uM) | 
3 | CC(C)Oc1cc(-c2ccc(C(=O)NS(=O)(=O)c3cccc(N)n3)c(N3[C@H](C)CC[C@@H]3C)n2)ccc1Cl [Compound 788, N-[(6-amino-2-pyridyl)sulfonyl]-6-(4-chloro-3-isopropoxy-phenyl)-2-[(2S,5R)-2,5-dimethylpyrrolidin-1-yl]pyridine-3-carboxamide] | +++ (“+++” means <3 uM) | 
4 | C[C@@H]1CC[C@H](C)N1c1nc(-c2ccc(OCC3CC3)nc2)ccc1C(=O)NS(=O)(=O)c1cccc(N)n1 [Compound 789, N-[(6-amino-2-pyridyl)sulfonyl]-6-[6-(cyclopropylmethoxy)-3-pyridyl]-2-[(2S,5R)-2,5-dimethylpyrrolidin-1-yl]pyridine-3-carboxamide] | +++ (“+++” means <3 uM) | 
5 | Cc1cccc(C)c1CN1Cc2ccccc2C1(C)C(=O)NS(=O)(=O)c1cccc(N)n1 (stereo not drawn) [Compound 790, N-[(6-amino-2-pyridyl)sulfonyl]-2-[(2,6-dimethylphenyl)methyl]-1-methyl-isoindoline-1-carboxamide] | +++ (“+++” means <3 uM) | 
6 | COCCCc1ccc(C(=O)NS(=O)(=O)c2cccc(N)n2)c(Oc2c(C)cc(C)cc2C)n1 [Compound 791, N-[(6-amino-2-pyridyl)sulfonyl]-6-(3-methoxypropyl)-2-(2,4,6-trimethylphenoxy)pyridine-3-carboxamide] | ++ (“++” means between 3 uM and 10 uM) | 
7 | Cc1cc(C)c(Oc2nc(C)ccc2C(=O)NS(=O)(=O)c2cccc(NCCN)n2)c(C)c1 [Compound 792, N-[[6-(2-aminoethylamino)-2-pyridyl]sulfonyl]-6-methyl-2-(2,4,6-trimethylphenoxy)pyridine-3-carboxamide] | ++ (“++” means between 3 uM and 10 uM) | 
8 | Cc1cc(C)c(Oc2nc(-c3ccc(C)c(O)c3)ccc2C(=O)NS(=O)(=O)c2cccc(N)n2)c(C)c1 [Compound 793, N-[(6-amino-2-pyridyl)sulfonyl]-6-(3-hydroxy-4-methyl-phenyl)-2-(2,4,6-trimethylphenoxy)pyridine-3-carboxamide] | +++ (“+++” means <3 uM) | 
9 | CC1CCN(c2nc(C(C)(C)C)ccc2C(=O)NS(=O)(=O)c2cccc(N)n2)CC1 [Compound 794, N-[(6-amino-2-pyridyl)sulfonyl]-6-tert-butyl-2-(4-methyl-1-piperidyl)pyridine-3-carboxamide] | +++ (“+++” means <3 uM) | 
10 | COc1cccc(S(=O)(=O)NC(=O)c2ccc(-c3cc(F)cc(OCC(C)C)c3)nc2N2CC(C)CC2(C)C)n1 (stereo not drawn) [Compound 795] | +++ (“+++” means <3 uM) | 
11 | CC1CN(c2ncccc2C(=O)NS(=O)(=O)c2cccc(N[C@H](C)C3CCCCC3)n2)C(C)(C)C1 (stereo partly drawn) [Compound 1996, N—[[6-[[(1R)-1-cyclohexylethyl]amino]-2-pyridyl]sulfonyl]-2-(2,2,4-trimethylpyrrolidin-1-yl)pyridine-3-carboxamide] |  | < 3000 nM
12 | C[C@@H]1CN(c2nc(-c3cccc(CO)c3)ccc2C(=O)NS(=O)(=O)c2ccc[nH]c2=O)C(C)(C)C1 [Compound 1997, 6-[3-(hydroxymethyl)phenyl]-N-[(2-oxo-1H-pyridin-3-yl)sulfonyl]-2-[(4S)-2,2,4-trimethylpyrrolidin-1-yl]pyridine-3-carboxamide] |  | 3000 to 10000 nM
13 | COc1cc(-c2ccc(C(=O)NS(=O)(=O)c3cccnc3N)c(N3C[C@@H](C)CC3(C)C)n2)cc(F)c1F [Compound 1998, N-[(2-amino-3-pyridyl)sulfonyl]-6-(3,4-difluoro-5-methoxy-phenyl)-2-[(4S)-2,2,4-trimethylpyrrolidin-1-yl]pyridine-3-carboxamide] |  | < 3000 nM
14 | Cc1cc(O)ccc1-c1ccc(C(=O)NS(=O)(=O)c2cccnc2N)c(N2C[C@@H](C)CC2(C)C)n1 [Compound 1999, N-[(2-amino-3-pyridyl)sulfonyl]-6-(4-hydroxy-2-methyl-phenyl)-2-[(4S)-2,2,4-trimethylpyrrolidin-1-yl]pyridine-3-carboxamide] |  | 3000 to 10000 nM
15 | Cc1ccc(-c2ccc(C(=O)NS(=O)(=O)c3ccc[nH]c3=O)c(N3C[C@@H](C)CC3(C)C)n2)c(F)c1 [Compound 2000, 6-(2-fluoro-4-methyl-phenyl)-N-[(2-oxo-1H-pyridin-3-yl)sulfonyl]-2-[(4S)-2,2,4-trimethylpyrrolidin-1-yl]pyridine-3-carboxamide] |  | < 3000 nM
16 | CC1CN(c2ncccc2C(=O)NS(=O)(=O)c2cccc(OCC3CC=CCC3C)n2)C(C)(C)C1 (stereo not drawn) [Compound 2001, N—[[6-[(6-methylcyclohex-3-en-1-yl)methoxy]-2-pyridyl]sulfonyl]-2-(2,2,4-trimethylpyrrolidin-1-yl)pyridine-3-carboxamide] |  | < 3000 nM
17 | CCN(CC)c1cc(C)cc(-c2ccc(C(=O)NS(=O)(=O)c3cccc(N)n3)c(N3C[C@@H](C)CC3(C)C)n2)n1 [Compound 2002, N-[(6-amino-2-pyridyl)sulfonyl]-6-[6-(diethylamino)-4-methyl-2-pyridyl]-2-[(4S)-2,2,4-trimethylpyrrolidin-1-yl]pyridine-3-carboxamide] |  | < 3000 nM
18 | CC1CN(c2ncccc2C(=O)NS(=O)(=O)c2cccc(Oc3ccc4[nH]ccc4c3)n2)C(C)(C)C1 (stereo not drawn) [Compound 2003, N—[[6-(1H-indol-5-yloxy)-2-pyridyl]sulfonyl]-2-(2,2,4-trimethylpyrrolidin-1-yl)pyridine-3-carboxamide] |  | < 3000 nM
19 | CC1CN(c2ncccc2C(=O)NS(=O)(=O)c2cccc(NCc3cccs3)n2)C(C)(C)C1 (stereo not drawn) [Compound 2004, N—[[6-(2-thienylmethylamino)-2-pyridyl]sulfonyl]-2-(2,2,4-trimethylpyrrolidin-1-yl)pyridine-3-carboxamide] |  | < 3000 nM
20 | CC1CN(c2ncccc2C(=O)NS(=O)(=O)c2cccc(N(C)CCc3cccnc3)n2)C(C)(C)C1 (stereo not drawn) [Compound 2005, N—[[6-[methyl-[2-(3-pyridyl)ethyl]amino]-2-pyridyl]sulfonyl]-2-(2,2,4-trimethylpyrrolidin-1-yl)pyridine-3-carboxamide] |  | 3000 to 10000 nM
21 | COc1c(F)cc(F)cc1-c1ccc(C(=O)NS(=O)(=O)c2cccnc2N)c(N2C[C@@H](C)CC2(C)C)n1 [Compound 2006, N-[(2-amino-3-pyridyl)sulfonyl]-6-(3,5-difluoro-2-methoxy-phenyl)-2-[(4S)-2,2,4-trimethylpyrrolidin-1-yl]pyridine-3-carboxamide] |  | < 3000 nM
22 | C[C@@H]1CN(c2nc(-c3cccc4ccccc34)ccc2C(=O)NS(=O)(=O)c2ccc[nH]c2=O)C(C)(C)C1 [Compound 2007, 6-(1-naphthyl)-N-[(2-oxo-1H-pyridin-3-yl)sulfonyl]-2-[(4S)-2,2,4-trimethylpyrrolidin-1-yl]pyridine-3-carboxamide] |  | < 3000 nM
23 | COc1ncc(-c2ccc(C(=O)NS(=O)(=O)c3cccnc3N)c(N3C[C@@H](C)CC3(C)C)n2)c(OC)n1 [Compound 2008, N-[(2-amino-3-pyridyl)sulfonyl]-6-(2,4-dimethoxypyrimidin-5-yl)-2-[(4S)-2,2,4-trimethylpyrrolidin-1-yl]pyridine-3-carboxamide] |  | 3000 to 10000 nM
24 | CC(C)COc1cc(F)cc(-c2nc(N3C[C@@H](C)CC3(C)C)c(C(=O)NS(=O)(=O)c3cccc(N)n3)cc2I)c1 [Compound 2009, N-[(6-amino-2-pyridyl)sulfonyl]-6-(3-fluoro-5-isobutoxy-phenyl)-5-iodo-2-[(4S)-2,2,4-trimethylpyrrolidin-1-yl]pyridine-3-carboxamide] |  | < 3000 nM
25 | Cc1cc(-c2ccc(C(=O)NS(=O)(=O)c3cccc(N)n3)c(N3C[C@@H](C)CC3(C)C)n2)cc(OCC(C)C)n1 [Compound 2010, N-[(6-amino-2-pyridyl)sulfonyl]-6-(2-isobutoxy-6-methyl-4-pyridyl)-2-[(4S)-2,2,4-trimethylpyrrolidin-1-yl]pyridine-3-carboxamide] |  | < 3000 nM
26 | CC1CN(c2ncccc2C(=O)NS(=O)(=O)c2cccc(N3CCC4CCCCC4C3)n2)C(C)(C)C1 (stereo not drawn) [Compound 2011, N—[[6-(3,4,4a,5,6,7,8,8a-octahydro-1H-isoquinolin-2-yl)-2-pyridyl]sulfonyl]-2-(2,2,4-trimethylpyrrolidin-1-yl)pyridine-3-carboxamide] |  | < 3000 nM
27 | CC1CN(c2ncccc2C(=O)NS(=O)(=O)c2cccc(OCc3cccc(N(C)C)c3)n2)C(C)(C)C1 (stereo not drawn) [Compound 2012, N—[[6-[[3-(dimethylamino)phenyl]methoxy]-2-pyridyl]sulfonyl]-2-(2,2,4-trimethylpyrrolidin-1-yl)pyridine-3-carboxamide] |  | < 3000 nM
28 | CC1CN(c2ncccc2C(=O)NS(=O)(=O)c2cccc(Oc3ccc4c(c3)OCO4)n2)C(C)(C)C1 (stereo not drawn) [Compound 2013, N—[[6-(1,3-benzodioxol-5-yloxy)-2-pyridyl]sulfonyl]-2-(2,2,4-trimethylpyrrolidin-1-yl)pyridine-3-carboxamide] |  | < 3000 nM
29 | CC1CN(c2ncc(/C=C/c3ccc(C(F)(F)F)cc3)cc2C(=O)NS(=O)(=O)c2cccc(N)n2)C(C)(C)C1 (stereo not drawn) [Compound 2014, N-[(6-amino-2-pyridyl)sulfonyl]-5-[(E)-2-[4-(trifluoromethyl)phenyl]vinyl]-2-(2,2,4-trimethylpyrrolidin-1-yl)pyridine-3-carboxamide] |  | < 3000 nM
30 | CC1CN(c2ncccc2C(=O)NS(=O)(=O)c2cccc(Oc3ccccc3F)n2)C(C)(C)C1 (stereo not drawn) [Compound 2015, N—[[6-(2-fluorophenoxy)-2-pyridyl]sulfonyl]-2-(2,2,4-trimethylpyrrolidin-1-yl)pyridine-3-carboxamide] |  | < 3000 nM
